In publication PMC5608758, “A brain-targeting lipidated peptide for neutralizing RNA-mediated toxicity in Polyglutamine Diseases” (Scientific Reports, 2017):
Residues, ends and D or L forms follow the SMILES beside them. *: point of attachment. Palmitoyl = CCCCCCCCCCCCCCCC(=O)*

What was measured:
[1] = In vitro stability in rat brain homogenate; type: in vitro ADME; details: for remaining at 1 h, 1000 ng/mL / remaining at 1 h, 2000 ng/mL: incubation 1 hr; for remaining at 1 h, 2000 ng/mL: 100 rpm
Experimental: (§1) Sprague-Dawley (SD) rats (male, 180-200 g) were supplied by the Laboratory Animal Services Centre at The Chinese University of Hong Kong. All animal studies were conducted under the approval of the Animal Ethics Committee of The Chinese University of Hong Kong, and were performed in accordance with relevant guidelines and regulations. Blank rat brain homogenate was prepared by ultrasonic probe homogenization (Micoson XL-2000, Misonix, […], USA) of brains collected from the control rats. Blank rat plasma was prepared by centrifugation (8000 rcf for 3.5 min) of blood collected from control rats. […] The mixtures were incubated at 37 °C with 100 rpm in a water bath for 1 or 3 hr. […] The supernatant was collected for LC/MS/MS analysis.

MJD CAA/G78 RNA = experiment: Isothermal titration calorimetry binding assay, expanded CAA/G RNA; details: ITC; 0.7 mM P3V8 titrated into 0.5 µM MJD CAA/G78 RNA; one binding site model; mean ± S.E.M., at least 3 independent experiments
Experimental: (§2) Experiments were carried out using a MicroCal iTC200 isothermal titration calorimeter (GE Healthcare) at 25 °C. Data were analyzed using the Origin® scientific plotting software version 7 (Microcal Software Inc.). All RNAs and peptides were dissolved in binding buffer (20 mM MOPS, pH 7.0; 300 mM NaCl) and 0.7 mM of peptide was titrated into 0.5 µM of RNA for each experiment. The concentration of RNA was estimated with appropriate extinction coefficients at 260 nm on a Nanodrop 2000 (Thermo Scientific). A reference power of 8 μcal/s was used with an initial 0.5 µl of injection of peptide followed by 2 µl for all subsequent titrations points with a 60 sec initial equilibrium delay and 150 sec pause between injections. The samples were stirred at a speed of 1000 rpm throughout the experiment. The thermal titration data were fitted to the ‘one binding site model’ to determine the dissociation constant (KD). Each experiment was repeated at least 3 times with consistent results obtained.

[2] = tested on: pre-rRNA in DsRed CAG100 flies; experiment: Real-time PCR of pre-rRNA level in fly heads; type: in vivo, Drosophila; details: 1 μM peptide, 12 day-old adult fly heads
Experimental: (§3) RNA was extracted from cells or ten 12 day-old adult fly heads by Trizol reagent (Life Technologies), and 1 μg of purified RNA was then used for reverse-transcription using the ImPromII™ Reverse Transcription System (Promega). Random hexamer (Roche) was used as primers in reverse transcription. Taqman gene expression assays were performed on an ABI 7500 Real-time PCR system and data were analyzed as previously described. The following probes were used: pre-45s rRNA (Assay ID: AILJIZM), pre-rRNA (Assay ID: AIMSG5U), Drosophila GAPDH (Assay ID: Dm01841186) and human actin (Assay ID: Hs99999903_m1). Each experiment was repeated at least 3 times.

DsRed CAG100 Drosophila = experiment: Pseudopupil assay of retinal degeneration; type: in vivo; details: 1 µM peptide fed to third instar larvae for 2 hr in 2% sucrose; 12 day-old adult flies; mean ± S.E.M.
Experimental: Flies were raised at 21.5 °C on cornmeal medium supplemented with dry yeast. Fly lines bearing UAS-DsRed CAG0 and UAS-DsRed CAG100 were kind gifts of Professor Nancy Bonini (University of Pennsylvania, USA). The gmr-GAL4 fly line was obtained from Bloomington Drosophila Stock Center. For pseudopupil assay, third instar larvae were fed with various amount of respective peptides dissolved in 2% sucrose solution for 2 hr and then continued to culture in standard fly food at 21.5 °C[38]. Pseudopupil assay was performed on 12 day-old adult flies as mentioned previously. Images were captured by SPOT Insight CCD camera controlled by the SPOT Advanced software (Diagnostic instruments Inc.). Image processing was performed using the Adobe Photoshop CS software (Adobe). Each experiment was repeated at least 3 times (n = 10 fly heads), and consistent results were obtained. For viability test of wild-type flies from egg to adult stage, eggs born within 5 hr were collected and cultured in fly food containing 10 or 50 μM of respective peptides at 21.5°C. Viability from egg-to-adult was calculated as the number of adult flies collected divided by the number of eggs examined. Each experiment was repeated for three times (at least 130 eggs were examined in each group). Two batches of independently synthesized peptides were used in the experiments.

MJD CAG27 RNA = experiment: Isothermal titration calorimetry binding assay, unexpanded CAG RNA; details: ITC
Experimental: as §2

[3] = In vitro stability in rat plasma; type: in vitro ADME; details: for remaining at 3 h, 2000 ng/mL: rat; for remaining at 1 h, 500 ng/mL / remaining at 3 h, 1000 ng/mL: LLOQ 12.5 ng/mL P3V8
Experimental: as §1

[4] = tested on: pre-45s rRNA in EGFP CAG78 RNA-expressing HEK293 cells; experiment: Real-time PCR of pre-45s rRNA level in cells; type: cell-based; details: peptide transfected with DeliverX
Experimental: HEK293 cells were cultured at 37 °C with 5% CO2 in DMEM supplemented with 10% FBS and 1% penicillin-streptomycin. Primary rat cortical neurons were isolated and cultured as previously described. Transient transfection of HEK293 cells was performed using Lipofectamine 2000 (Life Technologies). P3V8 were delivered to HEK293 cells using the DeliverX (DX) Peptide Transfection Kit (Affymetrix) 4 hr after DNA transfection. At least two batches of independently synthesized peptides were used in the experiments.
as §3

[5] = male, Sprague-Dawley, rat plasma, 500 ng/mL, 37 °C, incubation 1 hr, LC/MS/MS, mean ± S.E.M. of 5, read-out: Percentage of remained
[6] = male, Sprague-Dawley, rat plasma, 1000 ng/mL, 37 °C, incubation 3 hr, LC/MS/MS, mean ± S.E.M. of 5, read-out: Percentage of remained
[7] = rat plasma, 2000 ng/mL, 37 °C, 100 rpm, incubation 1 hr, LC/MS/MS, mean ± S.E.M. of 5 independent experiments
[8] = male, Sprague-Dawley, rat, tissue homogenate, read-out: Percentage of remained

Ac-DGKSKGIAYIEFK-NH2 [P3V8]
remaining at 1 h, 500 ng/mL ([1]; male, Sprague-Dawley, rat, rat brain homogenate, read-out: Percentage of remained): < 2.5% | remaining at 1 h, 1000 ng/mL ([1]; male, Sprague-Dawley, rat brain homogenate, 37 °C, LC/MS/MS, mean ± S.E.M. of 5, read-out: Percentage of remained): 4 ± 1.6% | remaining at 3 h, 1000 ng/mL ([1]; male, Sprague-Dawley, rat brain homogenate, 37 °C, incubation 3 hr, LC/MS/MS, mean ± S.E.M. of 5, LLOQ 12.5 ng/mL P3V8, read-out: Percentage of remained): < 1.3% | remaining at 1 h, 2000 ng/mL ([1]; male, Sprague-Dawley, rat brain homogenate, 2000 ng/mL, 37 °C, LC/MS/MS, mean ± S.E.M. of 5, read-out: Percentage of remained): 3.3 ± 0.6% | remaining at 3 h, 2000 ng/mL ([1]; male, Sprague-Dawley, rat brain homogenate, 2000 ng/mL, 37 °C, incubation 3 hr, LC/MS/MS, mean ± S.E.M. of 5, LLOQ 12.5 ng/mL P3V8, read-out: Percentage of remained): < 0.6% | Percentage of remained ([1]; rat brain homogenate, 2000 ng/mL, 37 °C, incubation 3 hr, LC/MS/MS, mean ± S.E.M. of 5, LLOQ 12.5 ng/mL P3V8): almost completely degraded | Kd (MJD CAA/G78 RNA): 2.94 ± 0.96 µM | pre-rRNA level [2]: fully recovered to the DsRed CAG0 control level | pseudopupil score (DsRed CAG100 Drosophila): 4.32 ± 0.25 | Kd (MJD CAG27 RNA; 0.7 mM P3V8 titrated into 0.5 µM MJD CAG27 RNA, one binding site model, mean ± S.E.M., at least 3 independent experiments): 2.19 ± 0.27 µM | lower affinity for unexpanded RNA or expanded CAA/G RNA than for expanded CAG RNA (MJD CAG27 RNA; MJD CAG27 RNA or MJD CAA/G78 RNA versus MJD CAG78 RNA): 6–9 fold | remaining at 3 h, 2000 ng/mL ([3]; male, Sprague-Dawley, rat plasma, read-out: Percentage of remained): < 0.6% | remaining at 1 h, 500 ng/mL [3, 5]: < 2.5% | remaining at 1 h, 1000 ng/mL ([3]; male, Sprague-Dawley, rat plasma, 1000 ng/mL, 37 °C, incubation 1 hr, LC/MS/MS, mean ± S.E.M. of 5, read-out: Percentage of remained): 8.6 ± 0.5% | remaining at 3 h, 1000 ng/mL [3, 6]: < 1.3% | Percentage of remained [3, 7]: 20.7 ± 3.3% | Percentage of remained ([3]; rat plasma, 2000 ng/mL, 37 °C, 100 rpm, incubation 3 hr, LC/MS/MS, mean ± S.E.M. of 5, LLOQ 12.5 ng/mL P3V8, 100 ng/mL L1P3V8): almost completely degraded | restoration of pre-45s rRNA level [4]: dose-dependent restoration

CCCCCCCCCCCCCCCC(=O)N[C@@H](CC(=O)O)C(=O)NCC(=O)N[C@@H](CCCCN)C(=O)N[C@@H](CO)C(=O)N[C@@H](CCCCN)C(=O)NCC(=O)N[C@H](C(=O)N[C@@H](C)C(=O)N[C@@H](Cc1ccc(O)cc1)C(=O)N[C@H](C(=O)N[C@@H](CCC(=O)O)C(=O)N[C@@H](Cc1ccccc1)C(=O)N[C@@H](CCCCN)C(N)=O)[C@@H](C)CC)[C@@H](C)CC [L1P3V8] (Palmitoyl-DGKSKGIAYIEFK-NH2)
remaining at 1 h, 500 ng/mL [1, 8]: < 20% | remaining at 3 h, 500 ng/mL [1, 8]: < 20% | remaining at 1 h, 1000 ng/mL ([1]; male, Sprague-Dawley, tissue homogenate, rat brain homogenate, 37 °C, LC/MS/MS, mean ± S.E.M. of 5, read-out: Percentage of remained): 22.8 ± 1.2% | remaining at 3 h, 1000 ng/mL ([1]; male, Sprague-Dawley, tissue homogenate, rat brain homogenate, 37 °C, incubation 3 hr, LC/MS/MS, mean ± S.E.M. of 5, LLOQ 12.5 ng/mL P3V8, read-out: Percentage of remained): 15.8 ± 0.7% | remaining at 1 h, 2000 ng/mL ([1]; male, Sprague-Dawley, tissue homogenate, rat brain homogenate, 2000 ng/mL, 37 °C, LC/MS/MS, mean ± S.E.M. of 5, read-out: Percentage of remained): 45 ± 3.5% | remaining at 3 h, 2000 ng/mL ([1]; male, Sprague-Dawley, tissue homogenate, rat brain homogenate, 2000 ng/mL, 37 °C, incubation 3 hr, LC/MS/MS, mean ± S.E.M. of 5, LLOQ 12.5 ng/mL P3V8, read-out: Percentage of remained): 21.2 ± 3% | remaining at 3 h, 2000 ng/mL ([3]; male, Sprague-Dawley, plasma, read-out: Percentage of remained): 86.9 ± 5.5% | remaining at 1 h, 500 ng/mL [3, 5]: 88.1 ± 4.9% | remaining at 3 h, 500 ng/mL ([3]; male, Sprague-Dawley, rat plasma, 500 ng/mL, 37 °C, incubation 3 hr, LC/MS/MS, mean ± S.E.M. of 5, read-out: Percentage of remained): 73.8 ± 5.7% | remaining at 3 h, 1000 ng/mL [3, 6]: 81.2 ± 1.5% | remaining at 1 h, 2000 ng/mL ([3]; male, Sprague-Dawley, rat plasma, 2000 ng/mL, 37 °C, 100 rpm, incubation 1 hr, LC/MS/MS, mean ± S.E.M. of 5 independent experiments, read-out: Percentage of remained): 98.8 ± 5% | Percentage of remained ([3]; rat plasma, 1000 ng/mL, 37 °C, incubation 1 hr, LC/MS/MS, mean ± S.E.M. of 5): 98.7 ± 3.9 % | Percentage of remained [3, 7]: nearly all L1P3V8 remained intact
